Laboratory results as given in patent publication US8921364B2, “Modulators of calcium release-activated calcium channel” (Rhizen Pharmaceuticals SA, priority 2009, dated 2014).
Where a name gives a salt, the structure may show the parent alone. Read-outs that look alike come from different tables or passages of the source.

Target: CRAC channels (Homo sapiens (Human), UniProt Q96D31)
Assay: In-vitro CRAC channel inhibition assay in Jurkat cells (thapsigargin-induced calcium influx)
Type: cell-based
Method: Inhibition of CRAC channels was determined following thapsigargin (Sigma, Cat # T9033) induced endoplasmic calcium release in Jurkat cells. […] Cells were centrifuged and re-suspended in equal volumes ° f Ca^2+ and Mg^2+ free Hanks buffer and Fluo-8 NW dye (ABD Bioquest, Inc., Sunnyvale, Calif.) loading solution at 2×10^5 cells/100 μl/well in 96-well black plate. Plate is incubated at 37° C., 5% CO2 for 30 min followed by further 15 min incubation at room temperature. Test compounds (DMSO stocks diluted in Ca^2+ and Mg^2+ free Hanks buffer) at desired concentrations were added to the wells and incubated for […] Thapsigargin (1 μM final concentration) was added to the wells and incubated for 15 min to inhibit the Sarco-endoplasmic reticulum Ca^2+ ATPase pump thereby depleting endoplasmic calcium and raising cytosolic calcium concentrations. Store-operated calcium entry was initiated by adding extracellular Ca^2+ to a final concentration of 1.8 mM. Fluorescence was monitored over […] on a plate reader (BMG Labtech., Germany) with excitation at 485 nm and an emission wavelength at 520 nm. Data were analyzed using GraphPad Prism. IC50 for each compound was determined based on the percent inhibition of thapsigargin-induced calcium influx into cells.

[1] = Jurkat cells, thapsigargin-induced calcium influx

CRAC channels, sequence (Q96D31 whole entry): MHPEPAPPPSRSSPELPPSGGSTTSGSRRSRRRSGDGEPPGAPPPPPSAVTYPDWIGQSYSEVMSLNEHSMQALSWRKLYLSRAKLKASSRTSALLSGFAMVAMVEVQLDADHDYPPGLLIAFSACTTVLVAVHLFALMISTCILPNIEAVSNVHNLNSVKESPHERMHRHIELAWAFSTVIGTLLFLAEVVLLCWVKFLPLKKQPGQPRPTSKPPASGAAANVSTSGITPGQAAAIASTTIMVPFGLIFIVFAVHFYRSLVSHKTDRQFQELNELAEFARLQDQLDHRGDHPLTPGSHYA

In the case of `Cc1nnsc1C(=O)Nc1ccc(-n2nc(C3CC3)cc2C2CC2)cc1` [Example 1, N-[4-(3,5-dicyclopropyl-1H-pyrazol-1-yl)phenyl]-4-methyl-1,2,3-thiadiazole-5-carboxamide], the IC50 [1] is reported as 62.4 nM.
For `Cc1ncsc1C(=O)Nc1ccc(-n2nc(C3CC3)cc2C2CC2)cc1` [Example 2, N-[4-(3,5-dicyclopropyl-1H-pyrazol-1-yl)phenyl]-4-methylthiazole-5-carboxamide], the IC50 [1] was 207 nM.
`Cc1oncc1C(=O)Nc1ccc(-n2nc(C3CC3)cc2C2CC2)cc1` [Example 4, N-[4-(3,5-dicyclopropyl-1H-pyrazol-1-yl)phenyl]-5-methylisoxazole-4-carboxamide] gave an IC50 of 256 nM.
With `Cc1ccccc1C(=O)Nc1ccc(-n2nc(C3CC3)cc2C2CC2)cc1` [Example 7, N-[4-(3,5-dicyclopropyl-1H-pyrazol-1-yl)phenyl]-2-methylbenzamide] the IC50 [1] was 36.4 nM.
Work on `O=C(Nc1ccc(-n2nc(C3CC3)cc2C2CC2)cc1)c1ccncc1F` [Example 16, N-[4-(3,5-dicyclopropyl-1H-pyrazol-1-yl)phenyl]-3-fluoroisonicotinamide] yielded an IC50 [1] of 244 nM.
Work on `O=C(Nc1ccc(-n2nc(C3CC3)cc2C2CC2)cc1)c1c(Cl)cncc1Cl` [Example 17, 3,5-dichloro-N-(4-(3,5-dicyclopropyl-1H-pyrazol-1-yl)phenyl)isonicotinamide] yielded an IC50 [1] of 130 nM.
With `O=C(Cc1ccccc1)Nc1ccc(-n2nc(C3CC3)cc2C2CC2)cc1` [Example 19, N-[4-(3,5-dicyclopropyl-1H-pyrazol-1-yl)phenyl]-2-phenylacetamide] the IC50 [1] was 457 nM.
`O=C(Cc1ccccn1)Nc1ccc(-n2nc(C3CC3)cc2C2CC2)cc1` [Example 22, N-[4-(3,5-dicyclopropyl-1H-pyrazol-1-yl)phenyl]-2-(pyridin-2-yl)acetamide hydrochloride] showed an IC50 [1] of 968 nM.
For `Cc1nnsc1C(=O)Nc1ccc(-n2nc(C3CC3)cc2C2CC2)c(F)c1` [Example 28, N-[4-(3,5-dicyclopropyl-1H-pyrazol-1-yl)-3-fluorophenyl]-4-methyl-1,2,3-thiadiazole-5-carboxamide], the IC50 [1] was 60.3 nM.
For `O=C(Nc1ccc(-n2nc(C3CC3)cc2C2CC2)c(F)c1)c1c(F)cccc1F` [Example 33, N-[4-(3,5-dicyclopropyl-1H-pyrazol-1-yl)-3-fluorophenyl]-2,6-difluorobenzamide], the IC50 [1] was 145 nM.
In the case of `O=C(Nc1ccc(-n2nc(C3CC3)cc2C2CC2)c(F)c1)c1ccncc1` [Example 35, N-[4-(3,5-dicyclopropyl-1H-pyrazol-1-yl)-3-fluorophenyl]isonicotinamide hydrochloride], the inhibition at 1 µM (Jurkat cells, 1 uM, thapsigargin-induced calcium influx) is reported as 100% and the IC50 [1] is reported as 185 nM.
`Cc1ncncc1C(=O)Nc1ccc(-n2nc(C3CC3)cc2C2CC2)c(F)c1` [Example 36, N-[4-(3,5-dicyclopropyl-1H-pyrazol-1-yl)-3-fluorophenyl]-4-methylpyrimidine-5-carboxamide] gave an IC50 [1] of 224 nM.
With `Cc1nnsc1C(=O)Nc1ccc(-n2nc(C3CC3)c(Cl)c2C2CC2)c(F)c1` [Example 37, N-[4-(4-chloro-3,5-dicyclopropyl-1H-pyrazol-1-yl)-3-fluorophenyl]-4-methyl-1,2,3-thiadiazole-5-carboxamide] the IC50 [1] was 181 nM.
Compound `Cc1ncsc1C(=O)Nc1ccc(-n2nc(C3CC3)cc2C2CC2)nc1` [Example 39, N-[6-(3,5-dicyclopropyl-1H-pyrazol-1-yl)pyridin-3-yl]-4-methylthiazole-5-carboxamide hydrochloride] has an IC50 [1] of 851 nM.
With `O=C(Nc1ccc(-n2nc(C3CC3)cc2C2CC2)nc1)c1c(F)cccc1F` [Example 45, N-[6-(3,5-dicyclopropyl-1H-pyrazol-1-yl)pyridin-3-yl]-2,6-difluorobenzamide hydrochloride] the IC50 [1] was 436 nM.
`Cc1nnsc1C(=O)Nc1ccc(-n2nc(C(F)(F)F)cc2C2CC2)cc1` [Example 52, N-{4-[5-cyclopropyl-3-(trifluoromethyl)-1H-pyrazol-1-yl]phenyl}-4-methyl-1,2,3-thiadiazole-5-carboxamide] showed an IC50 [1] of 184 nM.
With `Cc1ncsc1C(=O)Nc1ccc(-n2nc(C(F)(F)F)cc2C2CC2)cc1` [Example 53, N-{4-[5-cyclopropyl-3-(trifluoromethyl)-1H-pyrazol-1-yl]phenyl}-4-methylthiazole-5-carboxamide] the IC50 [1] was 72 nM.
`Cc1oncc1C(=O)Nc1ccc(-n2nc(C(F)(F)F)cc2C2CC2)cc1` [Example 56, N-{4-[5-cyclopropyl-3-(trifluoromethyl)-1H-pyrazol-1-yl]phenyl}-5-methylisoxazole-4-carboxamide] gave an IC50 [1] of 63.2 nM.
With `Cc1noc(C)c1C(=O)Nc1ccc(-n2nc(C(F)(F)F)cc2C2CC2)cc1` [Example 57, N-{4-[5-cyclopropyl-3-(trifluoromethyl)-1H-pyrazol-1-yl]phenyl}-3,5-dimethylisoxazole-4-carboxamide] the IC50 [1] was 124 nM.
With `Cc1ccccc1C(=O)Nc1ccc(-n2nc(C(F)(F)F)cc2C2CC2)cc1` [Example 60, N-{4-[5-cyclopropyl-3-(trifluoromethyl)-1H-pyrazol-1-yl]phenyl}-2-methylbenzamide] the IC50 [1] was 120 nM.
Work on `O=C(Nc1ccc(-n2nc(C(F)(F)F)cc2C2CC2)cc1)c1ccncc1F` [Example 67, N-{4-[5-cyclopropyl-3-(trifluoromethyl)-1H-pyrazol-1-yl]phenyl}-3-fluoroisonicotinamide] yielded an IC50 [1] of 20.4 nM.
For `Cc1ncsc1CNc1ccc(-n2nc(C(F)(F)F)cc2C2CC2)cc1` [Example 74, 4-[5-cyclopropyl-3-(trifluoromethyl)-1H-pyrazol-1-yl]-N-[(4-methylthiazol-5-yl)methyl]aniline], the IC50 [1] was 48 nM.
`Cc1ncsc1NC(=O)c1ccc(-n2nc(C(F)(F)F)cc2C2CC2)cc1` [Example 78, 4-[5-cyclopropyl-3-(trifluoromethyl)-1H-pyrazol-1-yl]-N-(4-methylthiazol-5-yl)benzamide] gave an IC50 [1] of 34.1 nM.
`O=C(Nc1c(F)cccc1F)c1ccc(-n2nc(C(F)(F)F)cc2C2CC2)cc1` [Example 79, 4-[5-cyclopropyl-3-(trifluoromethyl)-1H-pyrazol-1-yl]-N-(2,6-difluorophenyl)benzamide] gave an IC50 [1] of 124 nM.
For `Cc1ncsc1C(=O)Nc1ccc(-n2nc(C(F)(F)F)c(Cl)c2C2CC2)cc1` [Example 80, N-{4-[4-chloro-5-cyclopropyl-3-(trifluoromethyl)-1H-pyrazol-1-yl]phenyl}-4-methylthiazole-5-carboxamide], the IC50 [1] was 194 nM.
`Cc1nnsc1C(=O)Nc1ccc(-n2nc(C(F)(F)F)cc2C2CC2)c(F)c1` [Example 82, N-{4-[5-cyclopropyl-3-(trifluoromethyl)-1H-pyrazol-1-yl]-3-fluorophenyl}-4-methyl-1,2,3-thiadiazole-5-carboxamide] showed an IC50 [1] of 35.7 nM.
In the case of `Cc1ncsc1C(=O)Nc1ccc(-n2nc(C(F)(F)F)cc2C2CC2)c(F)c1` [Example 83, N-{4-[5-cyclopropyl-3-(trifluoromethyl)-1H-pyrazol-1-yl]-3-fluorophenyl}-4-methylthiazole-5-carboxamide], the IC50 [1] is reported as 48.2 nM.
Work on `Cc1oncc1C(=O)Nc1ccc(-n2nc(C(F)(F)F)cc2C2CC2)c(F)c1` [Example 84, N-{4-[5-cyclopropyl-3-(trifluoromethyl)-1H-pyrazol-1-yl]-3-fluorophenyl}-5-methylisoxazole-4-carboxamide] yielded an IC50 [1] of 20.8 nM.
In the case of `O=C(Nc1ccc(-n2nc(C(F)(F)F)cc2C2CC2)c(F)c1)c1cccc(F)c1F` [Example 87, N-{4-[5-cyclopropyl-3-(trifluoromethyl)-1H-pyrazol-1-yl]-3-fluorophenyl}-2,3-difluorobenzamide], the IC50 [1] is reported as 32.6 nM.
